Data: US9273057B2 (Bristol-Myers Squibb Company, priority 2012, dated 2016)
Counter-ions that a name gives are not always drawn.

Target: CK2A1 (CK2α/β) (Homo sapiens, UniProt P68400)
Assay: CK2 kinase assay, CK2A1 (CK2α/β)
Assay type: biochemical
Settings: Table A; read-out: CK2A1 (CK2α/β) (IC50)

Sequence of CK2A1 (CK2α/β) (P68400 whole entry, species assumed): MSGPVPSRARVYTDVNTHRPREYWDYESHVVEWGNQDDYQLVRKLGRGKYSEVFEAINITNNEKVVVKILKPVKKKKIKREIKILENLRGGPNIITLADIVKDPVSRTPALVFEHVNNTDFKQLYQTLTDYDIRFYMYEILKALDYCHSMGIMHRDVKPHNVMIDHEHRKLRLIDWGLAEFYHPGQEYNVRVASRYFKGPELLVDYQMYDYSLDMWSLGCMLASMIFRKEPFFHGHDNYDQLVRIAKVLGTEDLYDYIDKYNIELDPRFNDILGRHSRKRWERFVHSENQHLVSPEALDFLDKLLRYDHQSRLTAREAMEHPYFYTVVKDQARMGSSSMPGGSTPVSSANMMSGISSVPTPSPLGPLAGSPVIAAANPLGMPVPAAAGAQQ
Sequence of CK2A1 (CK2α/β) (P67870 whole entry partner, species assumed): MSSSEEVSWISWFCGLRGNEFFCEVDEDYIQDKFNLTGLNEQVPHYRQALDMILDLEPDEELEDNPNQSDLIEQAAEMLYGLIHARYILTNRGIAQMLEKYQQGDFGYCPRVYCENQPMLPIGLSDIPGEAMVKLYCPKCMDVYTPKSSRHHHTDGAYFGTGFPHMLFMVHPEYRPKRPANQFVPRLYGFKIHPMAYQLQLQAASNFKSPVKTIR

| Compound | IC50 |
| --- | --- |
| CNC(=O)CN1CCN(c2cc(C#N)cc(Nc3nc(NC4CC4)c4ncc(C#N)n4n3)c2Cl)CC1 [Example 611, 2-[4-(2-chloro-5-cyano-3-{[7-cyano-4-(cyclopropylamino)imidazo [2,1-f][1,2,4]triazin-2-yl]amino}phenyl)piperazin-1-yl]-N-methylacetamide] | 0.65 nM |
| CCNc1nc(Nc2cc(C#N)cc(N3CC[C@@H](NC(=O)OC)[C@H](OC(=O)C[C@@H](N)CC(C)C)C3)c2Cl)nn2c(C#N)cnc12 [Example 819, (S)-(3R,4R)-1-(2-chloro-5-cyano-3-((7-cyano-4-(ethylamino)imidazo[2,1-f][1,2,4]triazin-2-yl)amino)phenyl)-4-((methoxycarbonyl)amino)piperidin-3-yl 3-amino-5-methylhexanoate hydrochloride] | 5.81 nM |
| CC(C)(O)C1CCN(C2CN(c3cc(C(F)F)cc(Nc4nc(NC5CC5)c5ncc(C#N)n5n4)c3Cl)C2)CC1 [Example 259, 2-((2-chloro-5-(difluoromethyl)-3-(3-(4-(1-hydroxy-1-methylethyl)-1-piperidinyl)-1-azetidinyl)phenyl)amino)-4-(cyclopropylamino)imidazo[2,1-f][1,2,4]triazine-7-carbonitrile] | 1.29 nM |
| N#Cc1cc(NC(=O)CN2CCOCC2)c(Cl)c(Nc2nc(NC3CC3)c3ncc(C#N)n3n2)c1 [Example 621, N-(2-chloro-5-cyano-3-((7-cyano-4-(cyclopropylamino)imidazo[2,1-f][1,2,4]triazin-2-yl)amino)phenyl)-2-morpholinoacetamide] | 1.62 nM |
| COC(=O)N[C@H]1CCN(c2cc(C#N)cc(Nc3nc(NC4CC4)c4ncc(C#N)n4n3)c2Cl)C[C@H]1NC(C)C [Example 756, methyl N-[(3R,4S)-1-(2-chloro-5-cyano-3-{[7-cyano-4-(cyclopropylamino)imidazo [2,1-f][1,2,4]triazin-2-yl]amino}phenyl)-3-[(propan-2-yl)amino]piperidin-4-yl]carbamate] | 4.43 nM |
| CC(O)CN1CCN(c2cc(C(F)F)cc(Nc3nc(NC4CC4)c4ncc(C#N)n4n3)c2Cl)CC1 (racemic) [Example 249, (+/−) 2-((2-chloro-5-(difluoromethyl)-3-(4-(2-hydroxypropyl)-1-piperazinyl)phenyl)amino)-4-(cyclopropylamino)imidazo[2,1-f][1,2,4]triazine-7-carbonitrile] | 2.22 nM |
| CCNc1nc(Nc2cc(C#N)cc(N3CC[C@@H](NC[C@H](C)O)[C@H](O)C3)c2Cl)nn2c(C#N)cnc12 [Example 377, 2-((2-chloro-5-cyano-3-((3R,4R)-3-hydroxy-4-(((S)-2-hydroxypropyl)amino)piperidin-1-yl)phenyl)amino)-4-(ethylamino)imidazo[2,1-f][1,2,4]triazine-7-carbonitrile] | 0.61 nM |
| N#Cc1cc(Nc2nc(NC3CC3)c3ncc(C#N)n3n2)c(F)cc1OCCN1CCOCC1 [Example 416, 2-((5-cyano-2-fluoro-4-(2-morpholinoethoxy)phenyl)amino)-4-(cyclopropylamino)imidazo[2,1-f][1,2,4]triazine-7-carbonitrile] | 0.68 nM |
| N#Cc1cc(Nc2nc(NC3CC3)c3ncc(C#N)n3n2)c(Cl)c(C(O)CN2CCOCC2)c1 (centres unmarked) [Example 684, 2-((2-chloro-5-cyano-3-(1-hydroxy-2-morpholinoethyl)phenyl)amino)-4-(cyclopropylamino)imidazo[2,1-f][1,2,4]triazine-7-carbonitrile] | 1.34 nM |
| CN1CC(OC(=O)N2CCN(c3cc(C#N)cc(Nc4nc(NC5CC5)c5ncc(C#N)n5n4)c3Cl)CC2)C1 [Example 592, 1-methylazetidin-3-yl 4-(2-chloro-5-cyano-3-{[7-cyano-4-(cyclopropylamino)imidazo [2,1-f][1,2,4]triazin-2-yl]amino}phenyl) piperazine-1-carboxylate] | 0.44 nM |
| N#Cc1cc(Nc2nc(NC3CC3)c3ncc(C#N)n3n2)c(F)c(N2CCN(C3COC3)CC2)c1 [Example 548, 2-((5-cyano-2-fluoro-3-(4-(oxetan-3-yl)piperazin-1-yl)phenyl)amino)-4-(cyclopropylamino)imidazo[2,1-f][1,2,4]triazine-7-carbonitrile] | 0.8 nM |
